Data: PubChem BioAssay (NCI)
“And” between values parts separate entries of the source, which are not always exact repeats. Equal values may be shown once.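 96-well plates; 48 h exposure; 5 concentrations. Endpoints by linear interpolation between flanking doses. Not reached: highest tested concentration assigned. Here, GI50 denotes the concentration required for 50% inhibition of growth. The concentration for full growth arrest is given as TGI.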

Tests used:
Test in all cases: growth of human tumour cells (NCI), 48 h
A498 renal = tested on: A498 renal
HOP-92 NSCLC = tested on: HOP-92 NSCLC
NCI/ADR-RES ovarian = tested on: NCI/ADR-RES ovarian
RXF 393 renal = tested on: RXF 393 renal
IGROV1 ovarian = tested on: IGROV1 ovarian
K-562 leukemia = tested on: K-562 leukemia
U251 CNS = tested on: U251 CNS
NCI-H23 lung = tested on: NCI-H23 lung
NCI-H460 lung = tested on: NCI-H460 lung
SNB-19 CNS = tested on: SNB-19 CNS

Question: For `CN1CCC(CNc2ccc3ncc(-c4cccc(OC(F)(F)F)c4)n3n2)CC1`, which GI50 (A498 renal) is on record?
Answer: 869 nM and 1580 nM

Question: And the TGI (A498 renal)?
Answer: 3280 nM and 7470 nM

Question: What about the GI50 (HOP-92 NSCLC) of the same molecule?
Answer: 1200 nM and 383 nM

Question: And the TGI (HOP-92 NSCLC)?
Answer: 3810 nM and 3660 nM

Question: What about the GI50 (NCI/ADR-RES ovarian) of the same molecule?
Answer: 2840 nM and 5260 nM

Question: And the TGI (NCI/ADR-RES ovarian)?
Answer: 10500 nM and > 10000 nM

Question: And the GI50 (RXF 393 renal)?
Answer: 1440 nM and 1720 nM

Question: What about the TGI (RXF 393 renal) of the same molecule?
Answer: 3680 nM and 6480 nM

Question: And the GI50 (IGROV1 ovarian)?
Answer: 2910 nM and 2270 nM

Question: And the TGI (IGROV1 ovarian)?
Answer: 9090 nM and 9110 nM

Question: What about the GI50 (K-562 leukemia) of the same molecule?
Answer: 1650 nM and 1700 nM

Question: What about the TGI (K-562 leukemia) of the same molecule?
Answer: 4950 nM and 6010 nM

Question: And the GI50 (U251 CNS)?
Answer: 1600 nM and 1440 nM

Question: And the TGI (U251 CNS)?
Answer: 3230 nM and 2970 nM

Question: And the GI50 (NCI-H23 lung)?
Answer: 2470 nM and 3960 nM

Question: What about the TGI (NCI-H23 lung) of the same molecule?
Answer: 9480 nM and > 10000 nM

Question: And the GI50 (NCI-H460 lung)?
Answer: 2160 nM and 2940 nM

Question: And the TGI (NCI-H460 lung)?
Answer: 5680 nM and > 10000 nM

Question: And the GI50 (SNB-19 CNS)?
Answer: 4060 nM and 2950 nM

Question: And the TGI (SNB-19 CNS)?
Answer: 16500 nM and > 10000 nM

Question: Which GI50 (A498 renal) does the source give for `O=C1/C=C/[C@@H](O)[C@@H]2C[C@@H](O)C[C@H]2/C=C/CCC[C@H](CCc2ccc(C(F)(F)F)cc2)O1` here?
Answer: 53.3 nM

Question: And the TGI (A498 renal)?
Answer: 277 nM

Question: What about the GI50 (HOP-92 NSCLC) of the same molecule?
Answer: 227 nM

Question: What about the TGI (HOP-92 NSCLC) of the same molecule?
Answer: 890 nM

Question: What about the GI50 (NCI/ADR-RES ovarian) of the same molecule?
Answer: 191 nM

Question: What about the TGI (NCI/ADR-RES ovarian) of the same molecule?
Answer: 9580 nM

Question: And the GI50 (RXF 393 renal)?
Answer: 126 nM

Question: And the TGI (RXF 393 renal)?
Answer: 669 nM

Question: What about the GI50 (IGROV1 ovarian) of the same molecule?
Answer: 309 nM

Question: And the TGI (IGROV1 ovarian)?
Answer: 7010 nM

Question: And the GI50 (K-562 leukemia)?
Answer: 444 nM

Question: What about the TGI (K-562 leukemia) of the same molecule?
Answer: > 100000 nM

Question: And the GI50 (U251 CNS)?
Answer: 272 nM

Question: And the TGI (U251 CNS)?
Answer: 21300 nM

Question: What about the GI50 (NCI-H23 lung) of the same molecule?
Answer: 236 nM

Question: And the TGI (NCI-H23 lung)?
Answer: 1570 nM

Question: And the GI50 (NCI-H460 lung)?
Answer: 388 nM

Question: And the TGI (NCI-H460 lung)?
Answer: > 55400 nM

Question: And the GI50 (SNB-19 CNS)?
Answer: 383 nM

Question: And the TGI (SNB-19 CNS)?
Answer: > 100000 nM

Question: What does the source list for `COc1ccc(-c2nsc3c2NC(=O)CC3c2ccc(F)cc2)cc1` (centres undefined)?
Answer: GI50 (A498 renal): 2370 nM; TGI (A498 renal): > 100000 nM; GI50 (HOP-92 NSCLC): 1770 nM; TGI (HOP-92 NSCLC): 23700 nM; GI50 (NCI/ADR-RES ovarian): 2570 nM; TGI (NCI/ADR-RES ovarian): > 26900 nM; GI50 (RXF 393 renal): 5910 nM; TGI (RXF 393 renal): > 77500 nM; GI50 (IGROV1 ovarian): 5440 nM; TGI (IGROV1 ovarian): > 100000 nM; GI50 (K-562 leukemia): 1370 nM; TGI (K-562 leukemia): > 100000 nM; GI50 (U251 CNS): 4000 nM; TGI (U251 CNS): > 100000 nM; GI50 (NCI-H23 lung): 6100 nM; TGI (NCI-H23 lung): > 100000 nM; GI50 (NCI-H460 lung): 3460 nM; TGI (NCI-H460 lung): > 100000 nM; GI50 (SNB-19 CNS): 7750 nM; TGI (SNB-19 CNS): > 100000 nM

Question: Which results are given for `CCN1C(=O)N(CC)C2C1NN=c1s/c(=C\c3ccccc3F)c(=O)n12` (centres undefined)?
Answer: GI50 (A498 renal): 15.4 nM; TGI (A498 renal): 64 nM; GI50 (HOP-92 NSCLC): 1110 nM; TGI (HOP-92 NSCLC): 69000 nM; GI50 (NCI/ADR-RES ovarian): 29.6 nM; TGI (NCI/ADR-RES ovarian): > 63600 nM; GI50 (RXF 393 renal): 22.4 nM; TGI (RXF 393 renal): 1360 nM; GI50 (IGROV1 ovarian): 51.2 nM; TGI (IGROV1 ovarian): > 43400 nM; GI50 (K-562 leukemia): 30.1 nM; TGI (K-562 leukemia): > 100000 nM; GI50 (U251 CNS): 35.4 nM; TGI (U251 CNS): > 100000 nM; GI50 (NCI-H23 lung): 64.1 nM; TGI (NCI-H23 lung): > 100000 nM; GI50 (NCI-H460 lung): 35.5 nM; TGI (NCI-H460 lung): > 40600 nM; GI50 (SNB-19 CNS): 48.9 nM; TGI (SNB-19 CNS): > 100000 nM

Question: `O=C1/C(=C\c2ccc(F)cc2)CN(C(=O)c2ccc([N+](=O)[O-])cc2)C/C1=C\c1ccc(F)cc1` was tested. Which GI50 (A498 renal) did it give?
Answer: 4400 nM

Question: And the TGI (A498 renal)?
Answer: 47000 nM

Question: What about the GI50 (HOP-92 NSCLC) of the same molecule?
Answer: 11400 nM

Question: What about the TGI (HOP-92 NSCLC) of the same molecule?
Answer: > 100000 nM

Question: What about the GI50 (NCI/ADR-RES ovarian) of the same molecule?
Answer: 3650 nM

Question: What about the TGI (NCI/ADR-RES ovarian) of the same molecule?
Answer: > 100000 nM

Question: What about the GI50 (RXF 393 renal) of the same molecule?
Answer: 1530 nM

Question: What about the TGI (RXF 393 renal) of the same molecule?
Answer: 3190 nM

Question: And the GI50 (IGROV1 ovarian)?
Answer: 2670 nM

Question: And the TGI (IGROV1 ovarian)?
Answer: 11000 nM

Question: And the GI50 (K-562 leukemia)?
Answer: 915 nM

Question: What about the TGI (K-562 leukemia) of the same molecule?
Answer: > 43200 nM

Question: What about the GI50 (U251 CNS) of the same molecule?
Answer: 1550 nM

Question: And the TGI (U251 CNS)?
Answer: 3970 nM

Question: What about the GI50 (NCI-H23 lung) of the same molecule?
Answer: 3600 nM

Question: And the TGI (NCI-H23 lung)?
Answer: 15600 nM

Question: And the GI50 (NCI-H460 lung)?
Answer: 4260 nM

Question: What about the TGI (NCI-H460 lung) of the same molecule?
Answer: > 40400 nM

Question: And the GI50 (SNB-19 CNS)?
Answer: 3580 nM

Question: And the TGI (SNB-19 CNS)?
Answer: 49100 nM

Question: `Cc1ncc(C(=O)Nc2ccc(CN3CCN(C)CC3)c(C(F)(F)F)c2)cc1C#Cc1cnc(N)c2cnccc12` was tested. Which GI50 (A498 renal) did it give?
Answer: 51.1 nM

Question: And the TGI (A498 renal)?
Answer: 300 nM

Question: What about the GI50 (HOP-92 NSCLC) of the same molecule?
Answer: 29.9 nM

Question: What about the TGI (HOP-92 NSCLC) of the same molecule?
Answer: 258 nM

Question: What about the GI50 (NCI/ADR-RES ovarian) of the same molecule?
Answer: 6680 nM

Question: And the TGI (NCI/ADR-RES ovarian)?
Answer: 23900 nM

Question: What about the GI50 (RXF 393 renal) of the same molecule?
Answer: 70.6 nM

Question: And the TGI (RXF 393 renal)?
Answer: 399 nM

Question: What about the GI50 (IGROV1 ovarian) of the same molecule?
Answer: 29.4 nM

Question: And the TGI (IGROV1 ovarian)?
Answer: 282 nM

Question: What about the TGI (K-562 leukemia) of the same molecule?
Answer: 1290 nM

Question: And the GI50 (U251 CNS)?
Answer: 86.4 nM

Question: And the TGI (U251 CNS)?
Answer: 2350 nM

Question: And the GI50 (NCI-H23 lung)?
Answer: 87.3 nM

Question: And the TGI (NCI-H23 lung)?
Answer: 10500 nM

Question: What about the GI50 (NCI-H460 lung) of the same molecule?
Answer: 64.7 nM

Question: What about the TGI (NCI-H460 lung) of the same molecule?
Answer: 1540 nM

Question: And the GI50 (SNB-19 CNS)?
Answer: 684 nM

Question: What about the TGI (SNB-19 CNS) of the same molecule?
Answer: 17600 nM
